These results are taken from US11234960B2, “Compositions and methods for improving mitochondrial function and treating neurodegenerative diseases and cognitive disorders” (Amazentis SA, priority 2010, dated 2022).

One experiment relates to HFD-fed C57BL6/J mice. As to the kind of experiment: Plasma biochemistry in HFD-fed mice. The class given is in vivo. As to conditions: HFD-fed mice treated for 14 weeks; for plasma levels of triglycerides: fasted 12 h (FIG. 23A); for plasma levels of free fatty acids: fasted 12 h (FIG. 23B).
The test system of another experiment is normal mice. Nature of the experiment: Contextual fear conditioning (contextual memory) in normal mice. The format is in vivo. As to conditions: punicalagin approx. 90 mg/kg/day 3 months; for contextual memory, freezing 24 hours after training: urolithin A approx. 55 mg/kg/day 2.5 months (FIG. 46); for memory retention, extinction of contextual memory over days 1-5: urolithin A approx. 55 mg/kg/day 2.5 months (FIG. 47). The method, then:
Beginning at 3 months of age, mice were either fed (i) a standard control diet such as AIN-93G; (ii) a diet containing punicalagin at a concentration of […], so as to deliver an approximate dose of 90 mg/kg/day (for a period of 3 months); or (iii) a diet containing urolithin A at a concentration of […], so as to deliver an approximate dose of 55 mg/kg/day (for a period of 2.5 months). Actual doses vary slightly depending on the food consumption of each individual mouse, as well as the weight of the mouse. Behavioral assessment of cognition was measured after this period.
To examine the effect of pomegranate-derived compounds on memory and cognition, mice were examined for improvements in contextual memory utilizing the contextual fear conditioning assay. Mice were trained in a fear conditioning chamber as described in Example 19.
During training, animals were placed into the chamber one at a time. After four minutes of exploration inside the chamber, one foot shock (2 seconds and 0.4 mA) was administered, followed by a second foot shock (2 seconds and 0.4 mA) one minute later. Thirty seconds after the second foot shock, the mouse was placed back into its home cage.
One day later, trained animals were returned to the chamber for a period of three minutes. During this period mice were monitored for their movement. The amount of time spent immobile or “frozen” was scored as a percentage of the total time (3 minutes) under observation. The time spent immobile is a measure of the strength of the memory of the mice to recall the context in which they were trained.
To determine the effect of these pomegranate-derived compounds on memory retention, normal mice fed either (i) a control diet; (ii) punicalagin (for a period of 3 months) or (iii) urolithin A (for a period of 2.5 months) were studied for their memory recall on days 1, 2, 3, 4 and 5 after the initial contextual fear training.
Animals were placed in the same chamber and context for 3 min daily (same time of day, however no shock this time) for the 5 days that followed the initial testing. Freezing behavior induced by the simple contextual recognition by the animals of the chamber, where they received the initial shock, was measured during each of these daily 3-minute periods. The ability to recognize this environment in the absence of the stimulus is a measurement of contextual memory.

Experiment [1] concerns C2C12 myotubes (PGC-1α, Tfam, PFKFB3, CPT1b, MCAD, LCAD, Ndufa2, Cyt c, Mfn2). Nature of the experiment: Mitochondrial gene expression by real time quantitative PCR in C2C12 myotubes. The class given is cell-based. As to conditions: 48 hr, 1, 10 or 50 μM, vs DMSO control (FIG. 3). The method, then: To assess the effects of compounds on mitochondrial gene expression, C2C12 myoblasts were differentiated into myotubes by serum deprivation for 4 days (Cantó et al. (2009) Nature. 458:1056-60). Myotubes were incubated for 48 hr with ellagic acid or urolithin A at a final concentration of 1, 10 or 50 μM (all dissolved in DMSO, final concentration 0.1%). DMSO was used as a control (final concentration 0.1%). At the end of the treatment, cells were washed with phosphate buffered saline (PBS) and mRNA were immediately extracted according to manufacturer's instructions (Trizol Reagent, Invitrogen) by adding 1 mL of Trizol reagent. After extraction, cDNA were produced by reverse transcription according to manufacturer's instructions.
Assessment of the expression levels of genes (PGC-1α, Tfam, PFKFB3, CPT1b, MCAD, LCAD, Ndufa2, Cyt c, and Mfn2) which control the mitochondrial function was performed by real time quantitative PCR (Watanabe et al. (2004) J Clin Invest. 113:1408-18) by using the following set of primers (Fwd: forward primer; Rev: reverse primer): […]
PGC-1α (PPARγ-coregulator 1α) and Tfam (mitochondrial transcription factor A) are master regulators of the mitochondrial function, namely of mitochondrial biogenesis and mitochondrial phosphorylative oxidation (mOXPHOS). […]

Experimental for HFD-fed C57BL6/J mice: Mice in different treatment groups were administered (i) urolithin A mixed with food (food admix) to reach a dosing of 55 mg/kg body weight/day (mkd); (ii) ellagic acid mixed with food (food admix) to reach a dosing of 75 mkd; (iii) punicalagin (gavage) to reach a dosing of 90 mkd; or (iv) pomegranate extract (PE) (gavage) to reach a dosing of 140 mkd of total polyphenols. A typical pomegranate extract used in these experiments had the following composition: polyphenols, 140 mkd; punicalagin, 13.1 mkd; and ellagic acid, 13.2 mkd. For animals treated by gavage, gavage was performed daily (7 days/week) between 8:00 and 10:00 a.m.; compounds were mixed with saline solution (0.9% NaCl) and provided at a final volume of 5 mL/kg of body weight. Mice in high-fat control groups were fed with the same diet as the experimental animals. Mice in corresponding different control groups were administered either high-fat diet alone or high-fat diet plus daily gavage with vehicle (saline). Another control group of mice were fed standard chow diet alone.
In addition, plasma biochemistry was performed 14 weeks after the initiation of the treatment using a standard automated clinical chemistry analyzer (Dimension Xpand, SIEMENS). Animals were fasted for 12 h (from 8 pm to 8 am) before blood collection. Approximately 500 μL of blood was collected from vena cava in anesthetized animals under isofluorane anesthesia. Blood was collected in heparinized tubes and immediately placed on wet ice. Plasma was prepared by centrifugation (1500×g, 15 min, 4° C.). Plasma samples were then transferred in clean 1.5 mL microtubes and stored at −80° C. until biochemical measurements were performed on a standard automated clinical chemistry analyzer (Dimension Xpand, SIEMENS) using corresponding kits.

Turning to `O=C1O[C@H]2[C@@H]3OC(=O)c4cc(O)c(O)c(O)c4-c4c(O)c(O)c5oc(=O)c6c(c(O)c(O)c7oc(=O)c4c5c76)-c4c(cc(O)c(O)c4O)C(=O)OC[C@H]3OC(O)[C@@H]2OC(=O)c2cc(O)c(O)c(O)c2-c2c1cc(O)c(O)c2O` (mixture of isomers) [punicalagin, 2,3 hexahydroxydiphenoyl-4,6-gallagylglucose], in the experiment on HFD-fed C57BL6/J mice, the “plasma levels of triglycerides” value is recorded as “statistically significant improvement” and the “plasma levels of free fatty acids” value is recorded as “statistically significant improvement”. Moreover, in the experiment on normal mice, the “contextual memory, freezing 24 hours after training” value is recorded as “significant improvements in contextual memory” and the “memory retention, extinction of contextual memory over days 1-5” value is “improved memory retention”.
With `O=c1oc2c(O)c(O)cc3c(=O)oc4c(O)c(O)cc1c4c23` [ellagic acid], the “mitochondrial activity by expression of mitochondrial genes” value in experiment [1] is “increase mitochondrial activity in a dose-dependent manner”.
As for `O=c1oc2cc(O)ccc2c2ccc(O)cc12` [urolithin A, 3,8-Dihydroxydibenzo-α-pyrone], the “mitochondrial activity by expression of mitochondrial genes” value in experiment [1] is recorded as “increase mitochondrial activity in a dose-dependent manner”. Also, in the experiment on HFD-fed C57BL6/J mice, the “plasma levels of triglycerides” value is given as “statistically significant improvement” and the “plasma levels of free fatty acids” value is given as “statistically significant improvement”. In the experiment with normal mice, the “contextual memory, freezing 24 hours after training” value was “significant improvements in contextual memory” and the “memory retention, extinction of contextual memory over days 1-5” value is reported as “improved memory retention”.
